According to PubChem BioAssay (NCI):
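Following 48 hours of exposure in 96-well plates, responses at five concentrations were used to interpolate endpoints linearly. GI50 marks 50% less growth. The concentration for full growth arrest is given as TGI.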

Assays:
Test in all cases: DTP human tumour cell line panel, 48 h
T-47D breast = test system: T-47D breast
SN12C renal = test system: SN12C renal
OVCAR-4 ovarian = test system: OVCAR-4 ovarian
K-562 leukemia = test system: K-562 leukemia
DU-145 prostate = test system: DU-145 prostate
SNB-75 CNS = test system: SNB-75 CNS
BT-549 breast = test system: BT-549 breast
SK-MEL-28 melanoma = test system: SK-MEL-28 melanoma
SK-OV-3 ovarian = test system: SK-OV-3 ovarian
LOX IMVI melanoma = test system: LOX IMVI melanoma
RPMI-8226 leukemia = test system: RPMI-8226 leukemia
CCRF-CEM leukemia = test system: CCRF-CEM leukemia
HT29 colon = test system: HT29 colon
U251 CNS = test system: U251 CNS
UACC-257 melanoma = test system: UACC-257 melanoma
MALME-3M melanoma = test system: MALME-3M melanoma
HS 578T breast = test system: HS 578T breast
SF-539 CNS = test system: SF-539 CNS
EKVX NSCLC = test system: EKVX NSCLC
TK-10 renal = test system: TK-10 renal
SK-MEL-5 melanoma = test system: SK-MEL-5 melanoma
MDA-MB-435 = test system: MDA-MB-435
786-0 renal = test system: 786-0 renal
ACHN renal = test system: ACHN renal
M14 melanoma = test system: M14 melanoma
NCI-H460 lung = test system: NCI-H460 lung
NCI-H226 lung = test system: NCI-H226 lung
SK-MEL-2 melanoma = test system: SK-MEL-2 melanoma
COLO 205 colon = test system: COLO 205 colon
HL-60(TB) leukemia = test system: HL-60(TB) leukemia
HCT-15 colon = test system: HCT-15 colon
SF-295 CNS = test system: SF-295 CNS
HOP-62 NSCLC = test system: HOP-62 NSCLC
SW-620 colon = test system: SW-620 colon
NCI/ADR-RES ovarian = test system: NCI/ADR-RES ovarian
HCT-116 colon = test system: HCT-116 colon
HOP-92 NSCLC = test system: HOP-92 NSCLC
A549 NSCLC = test system: A549 NSCLC
SF-268 CNS = test system: SF-268 CNS
SNB-19 CNS = test system: SNB-19 CNS
OVCAR-5 ovarian = test system: OVCAR-5 ovarian
NCI-H522 lung = test system: NCI-H522 lung
PC-3 prostate = test system: PC-3 prostate
NCI-H23 lung = test system: NCI-H23 lung
RXF 393 renal = test system: RXF 393 renal
CAKI-1 renal = test system: CAKI-1 renal
UO-31 renal = test system: UO-31 renal
MDA-MB-231 breast = test system: MDA-MB-231 breast
MOLT-4 leukemia = test system: MOLT-4 leukemia
OVCAR-3 ovarian = test system: OVCAR-3 ovarian
SR leukemia = test system: SR leukemia
HCC-2998 colon = test system: HCC-2998 colon
MCF7 breast = test system: MCF7 breast
OVCAR-8 ovarian = test system: OVCAR-8 ovarian
A498 renal = test system: A498 renal
KM12 colon = test system: KM12 colon

`CC[C@H](Nc1cc(C)nc(N)n1)c1nc2cccc(NCc3ccc(C(=O)NO)cc3)c2c(=O)n1-c1ccccc1` gave a GI50 (T-47D breast) of 1.54 µM, a TGI (T-47D breast) of 6.13 µM and a GI50 (SN12C renal) of 1.96 µM. It also gave a TGI (SN12C renal) of 4.72 µM, a GI50 (OVCAR-4 ovarian) of 1.61 µM and a TGI (OVCAR-4 ovarian) of 4.12 µM. It also gave a GI50 (K-562 leukemia) of 2.56 µM, a TGI (K-562 leukemia) of 10 µM and a GI50 (DU-145 prostate) of 2.99 µM. For the same molecule, the TGI (DU-145 prostate) was 10.6 µM, the GI50 (SNB-75 CNS) was 1.12 µM and the TGI (SNB-75 CNS) was 3.5 µM. For the same molecule, the GI50 (BT-549 breast) was 2.44 µM, the TGI (BT-549 breast) was 6.57 µM and the GI50 (SK-MEL-28 melanoma) was 1.83 µM. It also gave a TGI (SK-MEL-28 melanoma) of 3.9 µM, a GI50 (SK-OV-3 ovarian) of 2.52 µM and a TGI (SK-OV-3 ovarian) of 8.88 µM. For the same molecule, the GI50 (LOX IMVI melanoma) was 1.78 µM, the TGI (LOX IMVI melanoma) was 3.29 µM and the GI50 (RPMI-8226 leukemia) was 2.08 µM. It also gave a TGI (RPMI-8226 leukemia) of 7.4 µM, a GI50 (CCRF-CEM leukemia) of 1.62 µM and a TGI (CCRF-CEM leukemia) of 11.4 µM. For the same molecule, the GI50 (HT29 colon) was 2.69 µM, the TGI (HT29 colon) was 10.4 µM and the GI50 (U251 CNS) was 1.47 µM. It also gave a TGI (U251 CNS) of 3.03 µM, a GI50 (UACC-257 melanoma) of 2.17 µM and a TGI (UACC-257 melanoma) of 7.41 µM. For the same molecule, the GI50 (MALME-3M melanoma) was 1.39 µM, the TGI (MALME-3M melanoma) was 2.93 µM and the GI50 (HS 578T breast) was 2.36 µM. The TGI (HS 578T breast) was 9.97 µM, the GI50 (SF-539 CNS) was 1.67 µM and the TGI (SF-539 CNS) was 3.26 µM. For the same molecule, the GI50 (EKVX NSCLC) was 3.32 µM, the TGI (EKVX NSCLC) was 12.2 µM and the GI50 (TK-10 renal) was 4.28 µM. It also gave a TGI (TK-10 renal) of 16.9 µM, a GI50 (SK-MEL-5 melanoma) of 1.96 µM and a TGI (SK-MEL-5 melanoma) of 4.41 µM. It also gave a GI50 (MDA-MB-435) of 1.64 µM, a TGI (MDA-MB-435) of 3.12 µM and a GI50 (786-0 renal) of 1.85 µM. The TGI (786-0 renal) was 3.79 µM, the GI50 (ACHN renal) was 10.5 µM and the TGI (ACHN renal) was 22.7 µM. It also gave a GI50 (M14 melanoma) of 1.85 µM, a TGI (M14 melanoma) of 3.88 µM and a GI50 (NCI-H460 lung) of 1.94 µM. For the same molecule, the TGI (NCI-H460 lung) was 5.68 µM, the GI50 (NCI-H226 lung) was 2.86 µM and the TGI (NCI-H226 lung) was 14.9 µM. It also gave a GI50 (SK-MEL-2 melanoma) of 2.58 µM, a TGI (SK-MEL-2 melanoma) of 7.37 µM and a GI50 (COLO 205 colon) of 1.56 µM. The TGI (COLO 205 colon) was 3.79 µM, the GI50 (HL-60(TB) leukemia) was 2.59 µM and the TGI (HL-60(TB) leukemia) was 6.1 µM. It also gave a GI50 (HCT-15 colon) of 10.4 µM, a TGI (HCT-15 colon) of 25.1 µM and a GI50 (SF-295 CNS) of 1.66 µM. The TGI (SF-295 CNS) was 3.48 µM, the GI50 (HOP-62 NSCLC) was 2.05 µM and the TGI (HOP-62 NSCLC) was 4.47 µM. The GI50 (SW-620 colon) was 1.61 µM, the TGI (SW-620 colon) was 4.19 µM and the GI50 (NCI/ADR-RES ovarian) was 77.2 µM. For the same molecule, the TGI (NCI/ADR-RES ovarian) was > 100 µM, the GI50 (HCT-116 colon) was 1.55 µM and the TGI (HCT-116 colon) was 3.72 µM. It also gave a GI50 (HOP-92 NSCLC) of 1.33 µM, a TGI (HOP-92 NSCLC) of 3.54 µM and a GI50 (A549 NSCLC) of 3.79 µM. For the same molecule, the TGI (A549 NSCLC) was 16.4 µM, the GI50 (SF-268 CNS) was 1.82 µM and the TGI (SF-268 CNS) was 3.49 µM. It also gave a GI50 (SNB-19 CNS) of 1.83 µM, a TGI (SNB-19 CNS) of 4.77 µM and a GI50 (OVCAR-5 ovarian) of 2.4 µM. The TGI (OVCAR-5 ovarian) was 7.59 µM, the GI50 (NCI-H522 lung) was 1.06 µM and the TGI (NCI-H522 lung) was 3.19 µM. The GI50 (PC-3 prostate) was 1.83 µM, the TGI (PC-3 prostate) was 4.41 µM and the GI50 (NCI-H23 lung) was 2.01 µM. The TGI (NCI-H23 lung) was 4.72 µM, the GI50 (RXF 393 renal) was 1.48 µM and the TGI (RXF 393 renal) was 2.9 µM. For the same molecule, the GI50 (CAKI-1 renal) was 3.33 µM, the TGI (CAKI-1 renal) was 14.2 µM and the GI50 (UO-31 renal) was 10.2 µM. It also gave a TGI (UO-31 renal) of 24.2 µM, a GI50 (MDA-MB-231 breast) of 1.62 µM and a TGI (MDA-MB-231 breast) of 3.16 µM. The GI50 (MOLT-4 leukemia) was 2.52 µM, the TGI (MOLT-4 leukemia) was 10.2 µM and the GI50 (OVCAR-3 ovarian) was 1.86 µM. For the same molecule, the TGI (OVCAR-3 ovarian) was 4.39 µM, the GI50 (SR leukemia) was 0.679 µM and the TGI (SR leukemia) was 13 µM. It also gave a GI50 (HCC-2998 colon) of 1.82 µM, a TGI (HCC-2998 colon) of 3.34 µM and a GI50 (MCF7 breast) of 1.98 µM. The TGI (MCF7 breast) was 6.39 µM, the GI50 (OVCAR-8 ovarian) was 2.04 µM and the TGI (OVCAR-8 ovarian) was 6.13 µM. It also gave a GI50 (A498 renal) of 1.51 µM, a TGI (A498 renal) of 3.33 µM and a GI50 (KM12 colon) of 1.69 µM. It also gave a TGI (KM12 colon) of 3.31 µM.
